Measured values as given in ChEMBL document CHEMBL1764954, “Activation of the G-protein-coupled receptor 119: a conformation-based hypothesis for understanding agonist response” (J Med Chem, 2011).
Converted amounts (≈) assume the structure as drawn. Blank lines part the entries; values can stand above or below the compound they belong to. The source made the active and inactive calls. No cut-off for these calls is given here.

Legend:
[1] = Aqueous solubility of the compound; format: physicochemical; conditions: aqueous medium
[2] = Solubility of the compound in gastric fluid at pH 1.2; format: physicochemical; conditions: simulated gi fluid
Rattus norvegicus [3] = test: Increase in GLP1 level in overnight fasted Wistar rats at 5 and 50 mg/kg, po; format: functional, organism-based; design: dose 50 mg/kg
Rattus norvegicus [4] = test: Hypoglycemic activity in overnight fasted Wistar rats assessed as decrease in glucose AUC at 5 and 50 mg/kg, po by oral glucose tolerance test; format: functional, organism-based; design: dose 50 mg/kg

- solubility [1]: > 40 mg/mL
Structure (SMILES): Cc1ncccc1Oc1ncnc(OC2CCN(C(=O)OC(C)C)CC2)c1C

- solubility [2]: 8.6 mg/mL (≈ 20.1 mM)
Structure (SMILES): Cc1ncccc1Oc1ncnc(OC2C3COCC2CN(C(=O)OC(C)C)C3)c1C (stereo in doubt; 8) [listing 1 of 2 here]

Structure (SMILES): Cc1ncccc1Oc1ncnc(OC2C3COCC2CN(C(=O)OC(C)C)C3)c1C (stereo in doubt; 8) [listing 2 of 2 here]
- Activity (Rattus norvegicus [3]): Active
- Activity (Rattus norvegicus [4]): Active

- solubility [2]: > 66 mg/mL
Structure (SMILES): Cc1ncccc1Oc1ncnc(OC2C3COCC2CN(C(=O)OC(C)C)C3)c1C (stereo in doubt; 9)
